Source: patent US8003785B2 (Takeda Pharmaceutical Company Limited, priority 2008, dated 2011)

Biological target: T1, PLK1 (Homo sapiens, UniProt P53350)
T1 construct: Full-length, active GST-PLK1 is purified from Sf9 insect cells; made in house; host or cells: Sf9 insect cells
Assay: Biochemical Characterization Assay: HTRF kinase assay, GST-PLK1 phosphorylation of GST-p53
Settings: GST-PLK1, GST-p53 substrate
Description: Biochemical Characterization Assay
Full-length, active GST-PLK1 is purified from Sf9 insect cells, and full-length GST-p53 is purified from E. coli. Anti-phospho p53 antibody is from Cell Signaling Technology. Europium-conjugated anti-rabbit antibody is from PerkinElmer Life and Analytical Sciences. APC-conjugated anti-GST antibody is from Prozyme.
Six microliters of GST-PLK1 (3 ug/mL) in Kinase Assay Buffer are then added and the solution incubated at 37° C. for 35 minutes. Six microliters of solution containing 43 mM EDTA to stop the reaction and a 1:600 dilution of anti-phospho-p53 antibody in 20 mM HEPES pH 7, 50 mM NaCl, and 0.5 mg/mL BSA (Antibody Binding Buffer) are added and the solution incubated at 37° C. for 30 minutes. […] The HTRF signal is read on an Envision reader from PerkinElmer Life and Analytical Sciences.

T1 sequence (P53350 whole entry): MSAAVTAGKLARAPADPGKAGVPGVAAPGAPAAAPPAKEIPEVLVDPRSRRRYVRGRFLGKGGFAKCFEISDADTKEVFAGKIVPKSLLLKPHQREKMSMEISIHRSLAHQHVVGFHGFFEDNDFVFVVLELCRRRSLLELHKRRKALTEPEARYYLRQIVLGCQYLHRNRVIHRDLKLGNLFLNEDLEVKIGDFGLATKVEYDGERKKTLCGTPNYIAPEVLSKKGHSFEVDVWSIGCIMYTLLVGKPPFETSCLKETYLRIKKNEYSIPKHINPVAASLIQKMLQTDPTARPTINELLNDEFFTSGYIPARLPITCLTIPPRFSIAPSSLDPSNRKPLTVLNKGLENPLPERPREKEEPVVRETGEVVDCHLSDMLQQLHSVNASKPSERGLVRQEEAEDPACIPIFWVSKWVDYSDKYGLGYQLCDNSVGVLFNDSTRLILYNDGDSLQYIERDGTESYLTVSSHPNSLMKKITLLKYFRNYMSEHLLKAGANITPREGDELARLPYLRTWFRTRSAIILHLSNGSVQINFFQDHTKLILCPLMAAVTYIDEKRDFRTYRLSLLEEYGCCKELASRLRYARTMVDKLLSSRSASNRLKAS

Compound | IC50 | IC50 (ATP)
CCN1C(=O)C(F)(F)CN(C2CCCC2)c2nc(Nc3ccc(C(=O)NCCCN(C)C)cc3OC)ncc21 [Example I-160, 4-(9-cyclopentyl-5-ethyl-7,7-difluoro-6-oxo-6,7,8,9-tetra-hydro-5H-pyrimido[4,5-b][1,4]diazepin-2-ylamino)-N-(3-dimethylamino-propyl)-3-methoxy-benzamide] | 51 to 500 nM | –
COc1cc(C(=O)NC2CCN(C(=O)OCC3c4ccccc4-c4ccccc43)CC2)ccc1Nc1ncc2c(n1)N(C1CCCC1)CC(F)(F)C(=O)N2C [Example I-70, 4-[4-(9-cyclopentyl-7,7-difluoro-5-methyl-6-oxo-6,7,8,9-tetrahydro-5H-pyrimido[4,5-b][1,4]diazepin-2-ylamino)-3-methoxy-benzoylamino]-piperidine-1-carboxylic acid 9H-fluoren-9-ylmethyl ester] | – | 1 to 50 nM
COc1cc(C(=O)NCCN)ccc1Nc1ncc2c(n1)N(C1CCCC1)CC(F)(F)C(=O)N2C [Example I-48, N-(2-amino-ethyl)-4-(9-cyclopentyl-7,7-difluoro-5-methyl-6-oxo-6,7,8,9-tetrahydro-5H-pyrimido[4,5-b][1,4]diazepin-2-ylamino)-3-methoxy-benzamide] | – | 1 to 50 nM
COc1cc(C(=O)NCc2cccnc2)ccc1Nc1ncc2c(n1)N(C1CCCC1)CC(F)(F)C(=O)N2C [Example I-111, 4-(9-cyclopentyl-7,7-difluoro-5-methyl-6-oxo-6,7,8,9-tetrahydro-5H-pyrimido[4,5-b][1,4]diazepin-2-ylamino)-3-methoxy-N-pyridin-3-yl-methyl benzamide] | – | 1 to 50 nM
COc1cc(C(=O)NCc2cc(Cl)cc(Cl)c2)ccc1Nc1ncc2c(n1)N(C1CCCC1)CC(F)(F)C(=O)N2C [Example I-42, 4-(9-cyclopentyl-7,7-difluoro-5-methyl-6-oxo-6,7,8,9-tetrahydro-5H-pyrimido[4,5-b][1,4]diazepin-2-ylamino)-N-(3,5-dichloro-benzyl)-3-methoxy-benzamide] | – | 1 to 50 nM
COc1cc(C(=O)N[C@H]2CC[C@H](N3CCN(CC4CC4)CC3)CC2)ccc1Nc1ncc2c(n1)N(C1CCCC1)CC(F)(F)C(=O)N2C [Example I-300, 4-(9-cyclopentyl-7,7-difluoro-5-methyl-6-oxo-6,7,8,9-tetrahydro-5H-pyrimido[4,5-b][1,4]diazepin-2-ylamino)-N-[trans-4-(4-cyclopropylmethyl-piperazin-1-yl)-cyclohexyl]-3-methoxy-benzamide] | 1 to 50 nM | –
COc1cc(C(=O)NC2CCOCC2)ccc1Nc1ncc2c(n1)N(C1CCCC1)CC(F)(F)C(=O)N2 [Example I-155, 4-(9-cyclopentyl-7,7-difluoro-6-oxo-6,7,8,9-tetrahydro-5H-pyrimido[4,5-b][1,4]diazepin-2-ylamino)-3-methoxy-N-(tetrahydro-pyran-4-yl)-benzamide] | – | > 5000 nM
CN1C(=O)C(F)(F)CN(C2CCCC2)c2nc(Nc3ccc(C(=O)NC4CCOCC4)cc3C(F)(F)F)ncc21 [Example I-207, 4-(9-cyclopentyl-7,7-difluoro-5-methyl-6-oxo-6,7,8,9-tetrahydro-5H-pyrimido[4,5-b][1,4]diazepin-2-ylamino)-N-(tetrahydro-pyran-4-yl)-3-trifluoromethyl-benzamide] | 51 to 500 nM | –
COc1cc(C(=O)NCc2ccoc2)ccc1Nc1ncc2c(n1)N(C1CCCC1)CC(F)(F)C(=O)N2C [Example I-34, 4-(9-cyclopentyl-7,7-difluoro-5-methyl-6-oxo-6,7,8,9-tetrahydro-5H-pyrimido[4,5-b][1,4]diazepin-2-ylamino)-N-furan-3-ylmethyl-3-methoxy-benzamide] | – | 1 to 50 nM
COc1cc(C(=O)NC2CCN(C)CC2)ccc1Nc1ncc2c(n1)N([C@@H]1C[C@H]1c1ccccc1)CC(F)(F)C(=O)N2C (relative stereo) [Example I-288, 4-[7,7-difluoro-5-methyl-6-oxo-9-(trans-2-phenyl-cyclopropyl)-6,7,8,9-tetrahydro-5H-pyrimido[4,5-b][1,4]diazepin-2-ylamino]-3-methoxy-N-(1-methyl-piperidin-4-yl)-benzamide] | 51 to 500 nM | –
COc1cc(C(=O)N[C@H]2CC[C@H](O)CC2)ccc1Nc1ncc2c(n1)N(C1CCCC1)CC(F)(F)C(=O)N2C [Example I-69, trans-4-(9-cyclopentyl-7,7-difluoro-5-methyl-6-oxo-6,7,8,9-tetrahydro-5H-pyrimido[4,5-b][1,4]diazepin-2-ylamino)-N-(4-hydroxy-cyclohexyl)-3-methoxy-benzamide] | – | 1 to 50 nM
COc1cc(C(=O)NC2CCOCC2)ccc1Nc1ncc2c(n1)N(C(C)C)CC(F)(F)C(=O)N2C [Example I-297, 4-(7,7-difluoro-9-isopropyl-5-methyl-6-oxo-6,7,8,9-tetrahydro-5H-pyrimido[4,5-b][1,4]diazepin-2-ylamino)-3-methoxy-N-(tetrahydro-pyran-4-yl)-benzamide] | 1 to 50 nM | –
CCc1cc(C(=O)NC2CCNCC2)ccc1Nc1ncc2c(n1)N(C1CCCC1)CC(F)(F)C(=O)N2C [Example I-202, 4-(9-cyclopentyl-7,7-difluoro-5-methyl-6-oxo-6,7,8,9-tetrahydro-5H-pyrimido[4,5-b][1,4]diazepin-2-ylamino)-3-ethyl-N-piperidin-4-yl-benzamide] | 1 to 50 nM | –
COc1cc(C(=O)Nc2ccccc2)ccc1Nc1ncc2c(n1)N(C1CCCC1)CC(F)(F)C(=O)N2C [Example I-38, 4-(9-cyclopentyl-7,7-difluoro-5-methyl-6-oxo-6,7,8,9-tetrahydro-5H-pyrimido[4,5-b][1,4]diazepin-2-ylamino)-3-methoxy-N-phenyl-benzamide] | – | 51 to 500 nM
COc1cc(C(=O)N[C@H]2CCC[C@H]2C(N)=O)ccc1Nc1ncc2c(n1)N(C1CCCC1)CC(F)(F)C(=O)N2C [Example I-44, N-[(1S,2R)-(2-carbamoyl-cyclopentyl)]-4-(9-cyclopentyl-7,7-difluoro-5-methyl-6-oxo-6,7,8,9-tetrahydro-5H-pyrimido[4,5-b][1,4]diazepin-2-ylamino)-3-methoxy-benzamide] | – | 1 to 50 nM
COc1cc(C(=O)NC2CCN(CCCS(C)(=O)=O)CC2)ccc1Nc1ncc2c(n1)N(C1CCCC1)CC(F)(F)C(=O)N2C [Example I-76, 4-(9-cyclopentyl-7,7-difluoro-5-methyl-6-oxo-6,7,8,9-tetrahydro-5H-pyrimido[4,5-b][1,4]diazepin-2-ylamino)-N-[1-(3-methanesulfonyl-propyl)-piperidin-4-yl]-3-methoxy-benzamide] | – | 1 to 50 nM
COc1cc(C(=O)NCCCNC(=O)OCC2c3ccccc3-c3ccccc32)ccc1Nc1ncc2c(n1)N(C1CCCC1)CC(F)(F)C(=O)N2C [Example I-73, {3-[4-(9-cyclopentyl-7,7-difluoro-5-methyl-6-oxo-6,7,8,9-tetrahydro-5H-pyrimido[4,5-b][1,4]diazepin-2-ylamino)-3-methoxy-benzoylamino]-propyl}-carbamic acid 9H-fluoren-9-ylmethyl ester] | – | 51 to 500 nM
CCOc1cc(C(N)=O)ccc1Nc1ncc2c(n1)N(C1CCCC1)CC(F)(F)C(=O)N2C [Example I-223, 4-(9-cyclopentyl-7,7-difluoro-5-methyl-6-oxo-6,7,8,9-tetrahydro-5H-pyrimido[4,5-b][1,4]diazepin-2-ylamino)-3-ethoxy-benzamide] | 1 to 50 nM | –
